In the NIST ThermoML archive (doi:10.1016/j.jct.2015.06.036):

Assay: refractive index (Na D-line) (dimensionless); xn = mol fraction of the nth substance listed
Details: 101 kPa, Liquid, Standard Abbe refractometry

CCCCn1cc[n+](C)c1.F[B-](F)(F)F [1-butyl-3-methylimidazolium tetrafluoroborate] + CO
refractive index
Details	288.15 K	298.15 K	308.15 K	318.15 K
x1 = 0.0113	1.337	1.3325	1.3285	1.3246
x1 = 0.0235	1.3428	1.3381	1.3343	1.3305
x1 = 0.0366	1.3481	1.3435	1.3398	1.3365
x1 = 0.0509	1.3539	1.3488	1.3453	1.3419
x1 = 0.0845	1.364	1.3595	1.3562	1.3536
x1 = 0.1254	1.3729	1.369	1.3657	1.3629
x1 = 0.1771	1.3827	1.3788	1.3754	1.3726
x1 = 0.2441	1.3912	1.3877	1.3845	1.3813
x1 = 0.3338	1.3999	1.3966	1.3934	1.3904
x1 = 0.4626	1.4082	1.4052	1.4022	1.3993
x1 = 0.5482	1.4123	1.4093	1.4064	1.4036
x1 = 0.6589	1.4163	1.4135	1.4107	1.408
x1 = 0.8037	1.4204	1.4177	1.415	1.4124
x1 = 1	1.4243	1.4217	1.419	1.4164

CCn1cc[n+](C)c1.F[B-](F)(F)F [1-ethyl-3-methylimidazolium tetrafluoroborate] + CO
refractive index
Details	288.15 K	298.15 K	308.15 K	318.15 K
x1 = 0.0136	1.3368	1.3324	1.3286	1.3247
x1 = 0.0283	1.3419	1.3376	1.3337	1.33
x1 = 0.044	1.3466	1.3423	1.3389	1.3357
x1 = 0.0615	1.3515	1.3474	1.3439	1.3402
x1 = 0.101	1.3604	1.3566	1.353	1.3495
x1 = 0.1485	1.3697	1.3659	1.3627	1.3592
x1 = 0.2073	1.3785	1.3749	1.3715	1.3685
x1 = 0.2817	1.3865	1.383	1.38	1.3768
x1 = 0.379	1.3937	1.3905	1.3874	1.3845
x1 = 0.5111	1.4008	1.3978	1.3949	1.3922
x1 = 0.5959	1.404	1.4012	1.3985	1.3958
x1 = 0.7027	1.4075	1.4048	1.4022	1.3996
x1 = 0.8297	1.4109	1.4082	1.4056	1.4031
x1 = 1	1.4143	1.4118	1.4092	1.4067
